Laboratory results published in patent publication US20090104297A1, “HERBAL COMPOSITION FOR TREATMENT OF INFECTIONS CAUSED BY DERMATOPHYTES” (Piramal Life Sciences Limited, priority 2006, published 2009).
Converted amounts (≈) assume the structure as drawn. Like-named read-outs stand apart in the source and are kept apart here.

Key:
[1] = test system: Candida albicans; test: In vitro susceptibility testing (MIC) by macro broth dilution method (CLSI M-38); assay type: cell-based
Description: (§1) In vitro susceptibility testing (Minimum Inhibitory Concentration) by macro broth dilution method—(CLSI method-M-38) was carried out as described in literature.
(§2) Reference method for broth dilution antifungal susceptibility testing of yeasts-Approved standard. NCCLS document M27-A. National Committee for Clinical Laboratory Standards, Wayne, Pa.;
(§3) Reference method for broth dilution antifungal susceptibility testing of filamentous fungi-Approved standard. NCCLS document M38-A. National Committee for Clinical Laboratory Standards, Wayne, Pa.
(§4) Candida albicans, Trichophyton mentagrophytes and Micropsporum gypseum were used as test organisms.
(§5) RPMI 1640 (Sigma) with L-glutamine but without sodium bicarbonate and buffered at pH 7.0 with 3-(N-morpholino) propanesulfonic acid monosodium salt (MOPS), was the medium used for broth macro dilution susceptibility testing.
(§6) The extract of example 1, compound 1 and ketoconazole as standard.
The samples were prepared in methanol at 100 times the final concentration, followed by further dilutions (1:10) in RPMI 1640 medium to yield ten times the final strength required for the test. Purified component was also diluted in the same manner in methanol alone. Aliquots (0.1 ml) of each extract were dispensed into tubes. The final concentrations of extract ranged from 100-10 μg/ml. […]

[2] = test system: Trichophyton mentagrophytes; test: as above; assay type: cell-based; details: for MIC: Trichophyton mentagrophytes
Description: as §1, §2, §3, §4, §5, §6
(§7) The samples were prepared in methanol at 100 times the final concentration, followed by further dilutions (1:10) in RPMI 1640 medium to yield ten times the final strength required for the test. Purified component was also diluted in the same manner in methanol alone. Aliquots (0.1 ml) of each extract were dispensed into tubes. The final concentrations of extract ranged from 100-10 μg/ml.
(§8) The cultures were grown on PDA agar slants at 28° C. for 7 days. The growth was covered with sterile saline and scraped to get a growth suspension. The resulting mixture of conidia or sporangiospores and hypal fragments was transferred to a sterile test tube. The heavy particles were allowed to settle and upper homogenous suspension was transferred to another tube. These suspensions were adjusted to an optical density that ranged from 0.09 to 0.11 (80 to 82% transmittance). These stock suspensions were further diluted 1:100 with medium to obtain test inoculum (0.4×10^4 to 5×10^4 cfu/ml).
(§9) Finally the tubes were inoculated with 0.1 ml of sample dilutions and 0.9 ml of the above-prepared inoculum. […] Growth control tube received only diluent without sample. […]

[3] = test system: Micropsporum gypseum; test: as above; assay type: cell-based, Microsporum gypseum; details: for MIC: Nannizzia gypsea
Description: as §1, §2, §3, §4, §5, §6, §7, §8, §9

[4] = test system: Trichophyton mentagrophytes; test: Agar well diffusion method, zone of inhibition; assay type: cell-based; details: preparative HPLC fractions; concentration not given
Description: The given extracts were tested against a panel of microorganisms, including Candida albicans 10231, Microsporum gypseum and Trichophyton mentagrophytes.
The strains were cultured overnight at 30° C. in Sabouraud dextrose agar. Colonies from subcultures were suspended in saline and vortexed to give a transmittance of 75-80% at 530 nm (T530 nm≈10^8 cfu/ml). Predecided volume of inoculum was mixed with molten agar at 40° C. and poured into sterile petri plates. Plates were allowed to set and solidify. Then wells (6 mm in diameter) were cut from the agar and 0.05 ml of extract solution was delivered into them. After incubation for 48 hours, at 28° C., all plates were examined for any zones of growth inhibition, and the diameters of these zones were measured in millimeters.
The stock solutions of 10 mg/ml of extracts of example 1 was prepared by suspending extract in methanol and sonicating for 10 seconds. Further dilutions were made to get a concentration range of 5, 2 and 1 mg/ml.
Preparative TLC samples were analyzed for the activity by Agar well diffusion method as described in example 2.
All preparative HPLC fractions were analyzed for activity by Agar well diffusion method as described in example 2.

MIC ([1]; macro broth dilution, RPMI 1640 pH 7.0, 37° C. for 24 hours, 100% growth inhibition, read-out: MIC values, Candida ablicans)	MIC ([2]; macro broth dilution, RPMI 1640 pH 7.0, 28° C. for 48 hours, 100% growth inhibition, read-out: MIC values, Trichophyton mentagrophytes)	MIC ([3]; macro broth dilution, RPMI 1640 pH 7.0, 28° C. for 48 hours, 100% growth inhibition, read-out: MIC values, Microsporum gypseum)	Compound	MIC ([1]; 24 h, pH 7, read-out: MIC values, Candida ablicans)	MIC ([2]; 48 h, pH 7, read-out: MIC values, Trichophyton mentagrophytes)	MIC against dermatophytes versus ketoconazole (conclusion of Table 3), Trichophyton mentagrophytes ([2]; macro broth dilution)	MIC ([3]; 48 h, pH 7, read-out: MIC values, Microsporum gypseum)	MIC against dermatophytes versus ketoconazole (conclusion of Table 3), Microsporum gypseum ([3]; macro broth dilution)	zone of inhibition (tested against Trichophyton mentagrophytes culture) [4]
–	–	–	COc1cc2[nH]c3ccccc3c2cc1C [Compound 1, 2-methoxy-3-methyl-9H-carbazole]	30 µg/mL (≈ 142 µM)	6 µg/mL (≈ 28.4 µM)	Conclusion: MIC of compound 1 against dermatophytes is comparable with ketoconazole.	4 µg/mL (≈ 18.9 µM)	Conclusion: MIC of compound 1 against dermatophytes is comparable with ketoconazole.	> 25 mm
5 µg/mL (≈ 9.41 µM)	4 µg/mL (≈ 7.53 µM)	4 µg/mL (≈ 7.53 µM)	CC(=O)N1CCN(c2ccc(OCC3COC(Cn4ccnc4)(c4ccc(Cl)cc4Cl)O3)cc2)CC1 (stereo not drawn) [Ketoconazole, ketoconazole, reference compound]	–	–	–	–	–	–
